US20230028293A1, “MULTIPLE MYELOMA COMBINATION THERAPIES BASED ON PROTEIN TRANSLATION INHIBITORS AND IMMUNOMODULATORS” (The Regents of the University of Colorado, a body corporate, priority 2019, published 2023)
“And” between values parts separate entries of the source, which are not always exact repeats. Equal entries are not always repeated. “Also recorded” adds a separate entry of the source.

What was measured:
[1] = system: bone marrow plasma cells from normal donors; assay: Sensitivity of healthy donor bone marrow plasma cells; format: cell-based; settings: 50 nM, 48 h incubation
[2] = system: luc-MM1.S cells in NSG mice; assay: In vivo protein translation (puromycin incorporation) in luc-MM1.S xenograft; settings: 1, 2 or 3 mg/kg IP; greatest effect at 3 mg/kg
Protocol: To extend the findings to an in vivo model, the effects of omacetaxine were examined using a firefly luciferase-expressing myeloma cell line, MM1.S (luc-MM1.S) to generate xenografts in NSG mice. The pharmacodynamics of omacetaxine were studied in this model. Mice were injected with luc-MM1.S cells and allowed to establish disease, followed by treatment with 1, 2, or 3 mg/kg omacetaxine, or with the vehicle control by intraperitoneal (IP) injection, followed by puromycin injection one hour later, and sacrificed 1.5 hours later, with bone marrow harvest and […] incorporation by flow cytometry (FIG. 9A).
Protein synthesis levels were determined in vitro utilizing the puromycin analog O-propargyl-puromycin (OP-Puro) in the protein synthesis assay kit (Cayman Chemical) according to manufacturer instructions. […]
For in vivo assessment of omacetaxine, 5×10^5 MM1.S cells stably expressing firefly luciferase were injected intravenously into NSG mice (Jackson Labs, Bar Harbor, Me.) to generate an orthometastatic MM xenograft model. […] Tumor status was assessed by BLI, and the results were analyzed by Living Image (PerkinElmer). Following treatment, the mice were continuously monitored for survival endpoints.

[3] = system: MM cell lines; assay: Two-drug combination matrix in MM cell lines, ZIP synergy; format: cell-based
[4] = system: protein translation in MM cell lines and primary MM cells; assay: OP-Puro protein translation assay in vitro; format: cell-based
Protocol: To examine whether myeloma cells depend on inherently high protein synthesis, the O-Propargyl-puromycin (OP-Puro) assay was used to measure the rate of amino-acid incorporation into translating ribosomes by flow cytometry.
Protein synthesis levels were determined in vitro utilizing the puromycin analog O-propargyl-puromycin (OP-Puro) in the protein synthesis assay kit (Cayman Chemical) according to manufacturer instructions. For in vivo protein synthesis, engrafted NSG mice were injected IP with 500 μg puromycin (Gibco), then euthanized after 1.5 h, marrow was flushed, and cells stained with anti-puromycin antibody (12D10, Alexa-488, Millipore Sigma), followed by flow cytometry.

[5] = system: BCL2; assay: Quantitative intracellular flow cytometry of BCL2; format: cell-based; settings: 50 nM, 6 h
Protocol: (§1) Quantitative flow cytometry was used to measure MCL1 and BCL2 densities per cell. Anti-MCL1 and anti-BCL2 antibodies were labeled with Alexa Fluor 647 (Molecular Probes/life Technologies) according to manufacturer's instructions. Intracellular staining of MCL1 and BCL2 was conducted following permeabilization with the Cytofix/Cytoperm kit (BD). Mean fluorescence intensity was converted to molecules of equivalent soluble fluorochrome (MESF) by generating a standard curve with Quantum™ beads (Bangs Labs, Fishers, Ind.). The fluorophore-to-antibody ratio of the labeled antibodies was determined using Simply Cellular® anti-mouse IgG beads (Bangs Labs). Finally, conversion of MESF to cell surface antigen density was calculated by dividing by the fluorophore-to-antibody ratio.

[6] = system: MM cell lines; assay: Two-drug combination matrix in MM cell lines, ZIP synergy; format: cell-based; remark: listed apart in the source
Protocol: In this example, possible candidates for use in combination with omacetaxine were examined, focusing on those that are currently clinically available. Omacetaxine was applies in combination with various anti-myeloma agents to MM cell lines Amo-1, L363, and U266 in two-drug combination matrices, with cell viability being measured after 96 h incubation. […] The […] for synergy of omacetaxine with Len and Pom were 13.89 and 11.24, respectively, with a broad range of concentrations showing a productive interaction (FIGS. 6B and 6D).
Either CellTiter-Glo Luminescent Cell Viability or CellTiter 96 AQueous MTS Cell Proliferation assay (Promega, Madison Wis.) were used to generate dose response curves of myeloma cell line proliferation treated with various anti-myeloma agents. Working solutions of CellTiter-Glo or CellTiter AQueous reagent were prepared per manufacturer instructions. Cells were combined with drug of interest at a concentration of 50,000 cells/well and incubated in 96-well culture plates at 37° C. for 96 h. After the incubation, the viability or proliferation results were obtained via Vmax Kinetic Microplate Reader (Molecular Devices, Sunnyvale Calif.). Cell line toxicity was also measured using high throughput flow cytometry.
(§2) Drug combination studies were set up using a full matrix design with myeloma cell lines or primary samples. Synergy was calculated using ZIP delta score via the SnergyFinder online tool (synergyfinder.fimm.fi). Combination index values were calculated using the CompuSyn software (ComboSyn Inc).

[7] = system: MCL1; assay: Quantitative intracellular flow cytometry of MCL1; format: cell-based; settings: 50 nM, 6 h
Protocol: as §1

[8] = system: IMiD-resistant relapsed MM patient sample; assay: Two-drug combination matrix in primary MM patient sample, ZIP synergy; format: cell-based, human
Protocol: as §2

Q: `COC(=O)C[C@](O)(CCCC(C)(C)O)C(=O)O[C@@H]1C(OC)=C[C@]23CCCN2CCc2cc4c(cc2[C@H]13)OCO4` [omacetaxine, Omacetaxine mepesuccinate] was tested. Which “cytotoxicity to normal plasma cells” value [1] did it give?
A: cytotoxic

Q: What about the “protein translation rate in luc-MM1.S cells in vivo” value [2] of the same compound?
A: dose-dependent decrease

Q: What about the “synergy with CC-220” value ([3]; H929 cells) of the same compound?
A: synergistic

Q: And the combination with dexamethasone ([3]; MM.1S cells)?
A: synergistic

Q: What about the “ZIP δ-score for synergy with Len” value ([3]; combination with lenalidomide, MM.1S cells, 96 h) of the same compound?
A: 13.89

Q: And the “ZIP δ-score for synergy with Pom” value ([3]; omacetaxine with pomalidomide, MM.1S cells, 96 h)?
A: 11.24

Q: What about the “synergy with the PI bortezomib” value ([3]; three MM cell lines (U266, MM.1S, H929)) of the same compound?
A: lack of synergy; also recorded: no significant enhanced activity

Q: What about the “translation in primary MM samples after treatment” value ([4]; 50 nM, 2.5 h, 14 primary samples, to near MNC levels) of the same compound?
A: significantly reduced

Q: What about the EC50 ([4]; Homo sapiens, NCI-H929, 2.5 h, H929 MM cell line and primary patient MM cells, read-out: EC50 of inhibition of protein translation) of the same compound?
A: 9 nM

Q: And the “ability to inhibit translation in myeloma cell lines” value ([4]; omacetaxine 50 nM 2.5 h, bortezomib 6 h, 24 h, 48 h)?
A: observed across all myeloma cell lines tested

Q: And the “Bcl-2 level in myeloma cells” value [5]?
A: does not decrease

Q: What about the “combination with dexamethasone versus single agent omacetaxine” value ([6]; L363 and U266 cells) of the same compound?
A: decreased activity

Q: And the “synergy with lenalidomide (cell viability)” value ([6]; combination with Len, 96 h)?
A: synergistic in all cell lines tested

Q: What about the “synergy with pomalidomide (cell viability)” value ([6]; omacetaxine combined with Pom, 96 h) of the same compound?
A: synergistic in all cell lines tested

Q: And the “synergy with dexamethasone, over cell lines tested” value ([6]; three MM cell lines)?
A: synergistic in only ⅓ MM cell lines tested

Q: What about the “MCL1 expression in myeloma cells” value [7] of the same compound?
A: rapidly downregulated

Q: And the “effect of combination with Pom on IMiD sensitivity of patient MM cells” value ([8]; IMiD-resistant relapsed patient sample)?
A: re-sensitized

Q: What about the “ZIP δ-score for synergy with Pom in patient sample” value ([8]; IMiD-resistant relapsed patient sample HTB-576) of the same compound?
A: 22.68 and 22.7
